Data from patent US11053204B2, “Pyrimidinyloxy benzene derivatives as herbicides” (FMC Corporation, priority 2015, dated 2021).

Columns and labels:
Test in all cases: Test C postemergence, plant response rating
Format in all cases: in vivo
[1] = tested on: wild mustard (Sinapis arvensis); details: for Mustard, Wild plant response rating: scale 0 to 100 (0 no effect, 100 complete control)
Procedure, shortened: (§1)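 Pre-emergence: seeds sown in loam soil–sand blend or silt loam and sprayed with test chemicals in a non-phytotoxic solvent mixture with surfactant. Post-emergence: plants 2 to 18 cm (1- to 4-leaf stage) in peat-based potting medium, same formulation. Greenhouse 13 to 15 d; visual rating 0 (no effect) to 100 (complete control) versus controls.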

[2] = tested on: field violet (Viola arvensis); details: for Field Violet plant response rating: scale 0 to 100 (0 no effect, 100 complete control)
Procedure, shortened: as §1

[3] = tested on: nightshade (eastern black nightshade, Solanum ptycanthum); details: for Nightshade plant response rating: scale 0 to 100 (0 no effect, 100 complete control)
Procedure, shortened: as §1

[4] = tested on: buckwheat, wild (wild buckwheat, Polygonum convolvulus); details: for Buckwheat, Wild plant response rating: scale 0 to 100 (0 no effect, 100 complete control)
Procedure, shortened: as §1

[5] = tested on: surinam grass (Brachiaria decumbens); details: for Surinam Grass plant response rating: 125 g ai/ha, scale 0 to 100 (0 no effect, 100 complete control)
Procedure, shortened: as §1

[6] = tested on: pigweed, palmer (palmer pigweed, Amaranthus palmeri); details: for Pigweed, Palmer plant response rating: scale 0 to 100 (0 no effect, 100 complete control)
Procedure, shortened: as §1

[7] = tested on: johnsongrass (Sorghum halepense); details: for Johnsongrass plant response rating: scale 0 to 100 (0 no effect, 100 complete control)
Procedure, shortened: as §1

[8] = tested on: wild poinsettia (Euphorbia heterophylla); details: for Poinsettia, Wild plant response rating: scale 0 to 100 (0 no effect, 100 complete control)
Procedure, shortened: as §1

[9] = tested on: geranium, cutleaf (cutleaf geranium, Geranium dissectum); details: for Geranium, Cutleaf plant response rating: scale 0 to 100 (0 no effect, 100 complete control)
Procedure, shortened: as §1

[10] = tested on: field poppy (Papaver rhoeas); details: for Field Poppy plant response rating: scale 0 to 100 (0 no effect, 100 complete control)
Procedure, shortened: as §1

[11] = tested on: speedwell (bird's-eye speedwell, Veronica persica); details: for Speedwell plant response rating: scale 0 to 100 (0 no effect, 100 complete control)
Procedure, shortened: as §1

[12] = tested on: Canada thistle (Cirsium arvense); details: for Canada Thistle plant response rating: scale 0 to 100 (0 no effect, 100 complete control)
Procedure, shortened: as §1

[13] = tested on: windgrass (Apera spica-venti); details: for Windgrass plant response rating: 125 g ai/ha, scale 0 to 100 (0 no effect, 100 complete control)
Procedure, shortened: as §1

Structure (SMILES): O=C(CCC(F)(F)C(F)(F)F)c1c(Br)cccc1Oc1ncc(Cl)cn1 [Compound 110]
- Plant response rating, Mustard, Wild ([1]; 16 g ai/ha, scale of 0 to 100): 90
- Plant response rating, Mustard, Wild ([1]; 31 g ai/ha, scale 0 to 100): 90
- Mustard, Wild plant response rating ([1]; 62 g ai/ha): 100
- Mustard, Wild plant response rating ([1]; 125 g ai/ha): 100
- Plant response rating, Field Violet ([2]; 16 g ai/ha, scale of 0 to 100): 80
- Plant response rating, Field Violet ([2]; 31 g ai/ha, scale 0 to 100): 95
- Field Violet plant response rating ([2]; 62 g ai/ha): 95
- Field Violet plant response rating ([2]; 125 g ai/ha): 100
- Plant response rating, Nightshade ([3]; 16 g ai/ha, scale of 0 to 100): 75
- Plant response rating, Nightshade ([3]; 31 g ai/ha, scale 0 to 100): 85
- Nightshade plant response rating ([3]; 62 g ai/ha): 95
- Nightshade plant response rating ([3]; 125 g ai/ha): 98
- Plant response rating, Buckwheat, Wild ([4]; 16 g ai/ha, scale of 0 to 100): 85
- Plant response rating, Buckwheat, Wild ([4]; 31 g ai/ha, scale 0 to 100): 85
- Buckwheat, Wild plant response rating ([4]; 62 g ai/ha): 95
- Buckwheat, Wild plant response rating ([4]; 125 g ai/ha): 80
- Plant response rating, Surinam Grass ([5]; 16 g ai/ha, scale of 0 to 100): 15
- Plant response rating, Surinam Grass ([5]; 31 g ai/ha, scale 0 to 100): 20
- Surinam Grass plant response rating [5]: 25
- Plant response rating, Pigweed, Palmer ([6]; 16 g ai/ha, scale of 0 to 100): 75
- Plant response rating, Pigweed, Palmer ([6]; 31 g ai/ha, scale 0 to 100): 95
- Pigweed, Palmer plant response rating ([6]; 62 g ai/ha): 98
- Pigweed, Palmer plant response rating ([6]; 125 g ai/ha): 95
- Plant response rating, Johnsongrass ([7]; 16 g ai/ha, scale of 0 to 100): 5
- Plant response rating, Johnsongrass ([7]; 31 g ai/ha, scale 0 to 100): 10
- Johnsongrass plant response rating ([7]; 62 g ai/ha): 10
- Johnsongrass plant response rating ([7]; 125 g ai/ha): 15
- Plant response rating, Poinsettia, Wild ([8]; 16 g ai/ha, scale of 0 to 100): 40
- Plant response rating, Poinsettia, Wild ([8]; 31 g ai/ha, scale 0 to 100): 65
- Poinsettia, Wild plant response rating ([8]; 62 g ai/ha): 80
- Poinsettia, Wild plant response rating ([8]; 125 g ai/ha): 90
- Plant response rating, Geranium, Cutleaf ([9]; 16 g ai/ha, scale of 0 to 100): 5
- Plant response rating, Geranium, Cutleaf ([9]; 31 g ai/ha, scale 0 to 100): 30
- Geranium, Cutleaf plant response rating ([9]; 62 g ai/ha): 40
- Geranium, Cutleaf plant response rating ([9]; 125 g ai/ha): 60
- Plant response rating, Field Poppy ([10]; 16 g ai/ha, scale of 0 to 100): 85
- Plant response rating, Field Poppy ([10]; 31 g ai/ha, scale 0 to 100): 100
- Field Poppy plant response rating ([10]; 62 g ai/ha): 100
- Field Poppy plant response rating ([10]; 125 g ai/ha): 100
- Plant response rating, Speedwell ([11]; 16 g ai/ha, scale of 0 to 100): 60
- Plant response rating, Speedwell ([11]; 31 g ai/ha, scale 0 to 100): 95
- Speedwell plant response rating ([11]; 62 g ai/ha): 90
- Speedwell plant response rating ([11]; 125 g ai/ha): 95
- Plant response rating, Canada Thistle ([12]; 16 g ai/ha, scale of 0 to 100): 65
- Plant response rating, Canada Thistle ([12]; 31 g ai/ha, scale 0 to 100): 90
- Canada Thistle plant response rating ([12]; 62 g ai/ha): 98
- Canada Thistle plant response rating ([12]; 125 g ai/ha): 95
- Plant response rating, Windgrass ([13]; 16 g ai/ha, scale of 0 to 100): 20
- Plant response rating, Windgrass ([13]; 31 g ai/ha, scale 0 to 100): 25
- Windgrass plant response rating [13]: 30

Structure (SMILES): FC(F)(F)CCCCc1c(Cl)cccc1Oc1ncc(Cl)cn1 [Compound 137]
- Plant response rating, Mustard, Wild ([1]; 16 g ai/ha, scale of 0 to 100): 100
- Plant response rating, Mustard, Wild ([1]; 31 g ai/ha, scale 0 to 100): 85
- Mustard, Wild plant response rating ([1]; 62 g ai/ha): 100
- Mustard, Wild plant response rating ([1]; 125 g ai/ha): 100
- Plant response rating, Field Violet ([2]; 16 g ai/ha, scale of 0 to 100): 65
- Plant response rating, Field Violet ([2]; 31 g ai/ha, scale 0 to 100): 70
- Field Violet plant response rating ([2]; 62 g ai/ha): 85
- Field Violet plant response rating ([2]; 125 g ai/ha): 85
- Plant response rating, Nightshade ([3]; 16 g ai/ha, scale of 0 to 100): 60
- Plant response rating, Nightshade ([3]; 31 g ai/ha, scale 0 to 100): 80
- Nightshade plant response rating ([3]; 62 g ai/ha): 90
- Nightshade plant response rating ([3]; 125 g ai/ha): 90
- Plant response rating, Buckwheat, Wild ([4]; 16 g ai/ha, scale of 0 to 100): 70
- Plant response rating, Buckwheat, Wild ([4]; 31 g ai/ha, scale 0 to 100): 75
- Buckwheat, Wild plant response rating ([4]; 62 g ai/ha): 98
- Buckwheat, Wild plant response rating ([4]; 125 g ai/ha): 90
- Plant response rating, Surinam Grass ([5]; 16 g ai/ha, scale of 0 to 100): 5
- Plant response rating, Surinam Grass ([5]; 31 g ai/ha, scale 0 to 100): 10
- Surinam Grass plant response rating [5]: 20
- Plant response rating, Pigweed, Palmer ([6]; 16 g ai/ha, scale of 0 to 100): 20
- Plant response rating, Pigweed, Palmer ([6]; 31 g ai/ha, scale 0 to 100): 45
- Pigweed, Palmer plant response rating ([6]; 62 g ai/ha): 50
- Pigweed, Palmer plant response rating ([6]; 125 g ai/ha): 70
- Plant response rating, Johnsongrass ([7]; 16 g ai/ha, scale of 0 to 100): 5
- Plant response rating, Johnsongrass ([7]; 31 g ai/ha, scale 0 to 100): 10
- Johnsongrass plant response rating ([7]; 62 g ai/ha): 10
- Johnsongrass plant response rating ([7]; 125 g ai/ha): 25
- Plant response rating, Poinsettia, Wild ([8]; 16 g ai/ha, scale of 0 to 100): 15
- Plant response rating, Poinsettia, Wild ([8]; 31 g ai/ha, scale 0 to 100): 65
- Poinsettia, Wild plant response rating ([8]; 62 g ai/ha): 65
- Poinsettia, Wild plant response rating ([8]; 125 g ai/ha): 75
- Plant response rating, Geranium, Cutleaf ([9]; 16 g ai/ha, scale of 0 to 100): 10
- Plant response rating, Geranium, Cutleaf ([9]; 31 g ai/ha, scale 0 to 100): 25
- Geranium, Cutleaf plant response rating ([9]; 62 g ai/ha): 30
- Geranium, Cutleaf plant response rating ([9]; 125 g ai/ha): 35
- Plant response rating, Field Poppy ([10]; 16 g ai/ha, scale of 0 to 100): 85
- Plant response rating, Field Poppy ([10]; 31 g ai/ha, scale 0 to 100): 95
- Field Poppy plant response rating ([10]; 62 g ai/ha): 100
- Field Poppy plant response rating ([10]; 125 g ai/ha): 100
- Plant response rating, Speedwell ([11]; 16 g ai/ha, scale of 0 to 100): 75
- Plant response rating, Speedwell ([11]; 31 g ai/ha, scale 0 to 100): 80
- Speedwell plant response rating ([11]; 62 g ai/ha): 100
- Speedwell plant response rating ([11]; 125 g ai/ha): 100
- Plant response rating, Canada Thistle ([12]; 16 g ai/ha, scale of 0 to 100): 75
- Plant response rating, Canada Thistle ([12]; 31 g ai/ha, scale 0 to 100): 85
- Canada Thistle plant response rating ([12]; 62 g ai/ha): 98
- Canada Thistle plant response rating ([12]; 125 g ai/ha): 100
- Plant response rating, Windgrass ([13]; 16 g ai/ha, scale of 0 to 100): 10
- Plant response rating, Windgrass ([13]; 31 g ai/ha, scale 0 to 100): 10
- Windgrass plant response rating [13]: 45
